Experimental data reported in patent US11795510B2, “Identification of epigenomic reprogramming in cancer and uses thereof” (The Johns Hopkins University, priority 2016, dated 2023).
“Also recorded” adds a separate entry of the source.

Key:
[1] = target: T1, 6-phosphogluconate dehydrogenase (PGD) (Homo sapiens, UniProt P52209); assay: Steady state LC-HRMS metabolite profiling (glycolytic/PPP metabolites); assay type: cell-based
T1 construct: endogenous in cells; host or cells: low-passage rapid-autopsy PDAC cell lines (e.g. A38Lg, A38Per, A13 subclones)
T1 sequence (P52209 1-483): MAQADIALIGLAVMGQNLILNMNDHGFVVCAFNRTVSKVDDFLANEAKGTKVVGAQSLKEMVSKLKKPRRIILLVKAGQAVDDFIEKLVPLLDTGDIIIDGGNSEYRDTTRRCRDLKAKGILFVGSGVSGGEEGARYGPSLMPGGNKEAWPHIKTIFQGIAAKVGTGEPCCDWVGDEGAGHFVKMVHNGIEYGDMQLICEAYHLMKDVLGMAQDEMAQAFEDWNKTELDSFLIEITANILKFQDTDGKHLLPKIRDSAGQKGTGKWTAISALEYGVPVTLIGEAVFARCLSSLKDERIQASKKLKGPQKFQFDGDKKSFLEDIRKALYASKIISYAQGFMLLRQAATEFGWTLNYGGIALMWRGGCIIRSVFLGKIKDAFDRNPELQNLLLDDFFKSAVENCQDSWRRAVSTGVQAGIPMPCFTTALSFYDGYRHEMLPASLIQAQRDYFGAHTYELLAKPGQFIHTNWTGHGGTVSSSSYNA
Procedure: (§1) Tissue samples and cell lines were previously collected from PDAC patients by rapid autopsy, sequenced-validated, and monitored for mycoplasma as previously described. Low passage (2-17) rapid autopsy cell lines were cultured at 37° C. in DMEM with 10% fetal bovine serum (FBS, Gibco). For MTT assays, 15,000 cells/well were plated into 96 well plates in triplicate, treated 12 hours later, and assayed after 24 hr (glucose responses) or 6 days (chemotherapy) with CellTiter96 (Promega). For glucose response assays, nutrient-deplete DMEM (no glucose, glutamine, pyruvate, or serum) was used with addition of glucose as indicated. […] Cells were then washed with PBS, trypsinized, and viable cells counted with a hemocytometer. Glucose uptake and lactate secretion were measured with a YSI 7100 Bioanalyzer as described in the supplementary methods. […]
LC-HRMS Metabolite Profiling. LC-HRMS samples were prepared and analyzed as described in Liu et al. (Development and quantitative evaluation of a high-resolution metabolomics technology. Anal Chem 86, 2175-84 (2014)). […] Additional replicates were also included and counted at the end of the experiment for normalization. […] Pellets were reconstituted into a volume normalized to protein content (15 uL of 1:1 acetonitrile:methanol and 15 uL of water was used per 1 mg protein) and analyzed by LC-QE-MS. […]

[2] = tested on: distant metastatic and precursor subclones; assay: YSI metabolite analysis (glucose/glutamine consumption, lactate/glutamate secretion); assay type: cell-based, human
Procedure: as §1
YSI metabolite analysis. Metabolite consumption (glucose and glutamine) and production (lactate and glutamate) were measured using a YSI 7100 Bioanalyzer. […] At day 0 cells were counted (3 wells) or cultured in either regular medium or medium supplemented with the indicated compound. […] The area under the curve (AUC) was calculated as N(T)d/ln2([…]), where N(T) is the final cell count, d is doubling time, and T is time of experiment. […]

[3] = tested on: distant metastatic subclones; assay: Organotypic tumor forming assay (3D organotypic stromal cultures); assay type: cell-based, human
Procedure: Organotypic tumor forming assays were adapted from Ridky et al. (P.A. Invasive three-dimensional organotypic neoplasia from multiple normal human epithelia. Nat Med 16, 1450-5 (2010)) and Andl et al. (Epidermal growth factor receptor mediates increased cell proliferation, migration, and aggregation in esophageal keratinocytes in vitro and in vivo. J Biol Chem 278, 1824-30 (2003)). Briefly, 6 well permeable transwell plates (Costar 3414) were overlayed with 1 mL type 1 collagen containing 10×DMEM (acellular layer). Human dermal fibroblasts (ATCC) were suspended (12×10^6 cells/mL) in a mixture of ice cold 10×DMEM, 10% FBS, 52.5% collagen, and 17.5% matrigel (cellular layer), thoroughly mixed, and 2 mL/well plated over the acellular layer. The mixture was allowed to partially solidify for approximately 15 minutes at 37° C., followed by triplicate injection of 1×10^6 PDAC (suspended in 20 ul DMEM) cells into the cellular layer. Cells were incubated for 24 hours in fibroblast growth media above and below the inserts to initiate contraction of the discs. […] Discs were harvested, fixed overnight in 10% formalin, […], and stained with H&E. Tumors were photographed and measured with an Olympus BX53 microscope using cellSens Standard software.

NC(=O)c1ccc(N)nc1 [6AN, 6-aminonicotinamide]
steady state levels of glucose and metabolites directly upstream of the PGD reaction (6PG, G1,5L) [1]: dramatically elevated; also recorded: greatly increased | steady state levels of metabolites downstream of the PGD reaction [1]: corresponding reductions | glutamine consumption or glutamate secretion [2]: no effect | rates of glucose consumption and lactate secretion [2]: selectively slowed | tumor formation after injection into 3D organotypic stromal cultures [3]: selectively and strongly blocked tumor formation; also recorded: blocked
